We go through 20 compounds from US12173026B2, “PRMT5 inhibitors” (Merck Sharp & Dohme LLC, priority 2018, dated 2024).

pEC50: −log10 of the molar value. Structures can show the parent of a compound that is named as a salt.

In this assay the test system is symmetric dimethylation of arginine (SDMA) of PRMT5 substrates in MCF-7 cells. The assay can be described thus: PRMT5 Cell Target Engagement (TE) Assay. In kind it is cell-based. Conditions: Homo sapiens, MCF7, 72 h; MCF-7 cells treated for 3 days; nuclear SDMA by high content imaging; top concentration 10000 nM. An excerpt: PRMT5 Cell Target Engagement (TE) Assay
The PRMT5 TE assay is a biomarker assay for identifying compounds that inhibit symmetric dimethylation of arginine (SDMA) of PRMT5 substrates. The following substrates have been reported for PRMT5: Histone H2A and H4 R3, Histone H3 R2, Histone 1-13 R8, spliceosome Sm proteins, ribosomal protein RPS10, p53, FEN1, nucleoplasmin, nucleolin, EGFR and EBNA. The assay will focus on detecting symnetrically dimethylated nuclear proteins using high content imaging technology. Detection of the expression of symmetrically dimethylated nuclear proteins is through a mixture of primary rabbit monoclonal antibodies to SDMA (CST 13222) which in turn recognized by an Alexafluor 488 dye-conjugated anti-rabbit IgG secondary antibody. The IN Cell Analyzer 2200 or Opera-Phenix measures nuclear Alexafluor 488 fluorescent dye intensity that is directly related to the level of expression of symmetrically dimethylated nuclear proteins at the single cell level. Nuclear AF488 dye intensities are compared to the mean value for DMSO treated cells (MIN) to report percent of inhibition for each compound-treated well.
In this assay, the cell potency (EC50) of each compound was determined from a ten point (1:3 serial dilution; top compound concentration of 10000 nM) titration curve using the following outlined procedure. Each well of a BD falcon collagen coated black/clear bottom 384-well plate was seeded with 4000 MCF-7 cells in 30 pal media and allowed to attach for 5 hours. Media is ATCC-formulated Eagle's Minimum Essential Medium, Catalog No. 30-2003. The following components were added to the base medium: 0.01 mg/mL human recombinant insulin; fetal bovine serum to a final concentration of 10%. Additional 30 pal of media containing 2× compounds were added to each well. Cells were treated for 3 days in 37° C. CO2 incubator. On day 3, cells were fixed with Cytofix, permeabilized with 0.4% Triton-X-100/Cytofix, and washed with D-PBS without Ca/Mg. Cells were blocked with Licor Odessey blocking reagent for 1 hour at room temperature, followed by incubation with anti-SDMA (1:1000) antibody at 4° C. overnight. 1° antibody was removed, followed by three washings with DPBS without Ca/Mg and 0.05% Tween20. Hoechst (5 μg/mL), Cell Mask deep stain (1:2000) and Alexa488-conjugated goat anti-rabbit IgG (2 μg/mL) was added for 1 hour at room temperature. A final washing step (three washes) was performed before sealing plate for imaging on in Cell Analyzer 2200 or Opera-Phenix. Images from analyzer were uploaded to Columbus for image analysis. IC50 values were determined by 4 parameters robust fit of percent fluorescence units vs. (Log 10) compound concentrations.

Compound `Nc1nc2cc(C[C@@H]3CC[C@@]4(O)[C@@H]3O[C@@H](n3cc(F)c5c(N)ncnc53)[C@@H]4O)cc(F)c2cc1F` [Example 24, (2R,3R,3aS,6S,6aR)-6-((2-amino-3,5-difluoroquinolin-7-yl)methyl)-2-(4-amino-5-fluoro-7H-pyrrolo[2,3-d]pyrimidin-7-yl)hexahydro-3aH-cyclopenta[b]furan-3,3a-diol] had a negative logarithm of the EC50 (pEC50) of 8.89.
As to `Cc1ncnc2c1ccn2[C@@H]1O[C@@H]2[C@H](Cc3cnc4cc(F)c(N)nc4c3)CC[C@]2(O)[C@H]1O` [Example 25, (2R,3R,3aS,6S,6aR)-6-((6-amino-7-fluoro-1,5-naphthyridin-3-yl)methyl)-2-(4-methyl-7H-pyrrolo[2,3-d]pyrimidin-7-yl)hexahydro-3aH-cyclopenta[b]furan-3,3a-diol, 3HCl], the negative logarithm of the EC50 (pEC50) is 6.59.
Compound `Nc1nc2c(F)c(C[C@@H]3CC[C@@]4(O)[C@@H]3O[C@@H](n3ccc5c(N)ncnc53)[C@@H]4O)ccc2cc1Cl` [Example 26, (2R,3R,3aS,6S,6aR)-6-((2-amino-3-chloro-8-fluoroquinolin-7-yl)methyl)-2-(4-amino-7H-pyrrolo[2,3-d]pyrimidin-7-yl)hexahydro-3aH-cyclopenta[b]furan-3,3a-diol] showed a pEC50 of 8.40.
With `Nc1nc2cc(C[C@@H]3CC[C@@]4(O)[C@@H]3O[C@@H](n3ccc5c(N)ncnc53)[C@@H]4O)c(F)cc2cc1F` [Example 27], the pEC50 was 8.55.
With `Nc1nc2nc(C[C@@H]3CC[C@@]4(O)[C@@H]3O[C@@H](n3ccc5c(N)ncnc53)[C@@H]4O)ccc2cc1Cl` [Example 28, (2R,3R,3aS,6S,6aR)-6-(7-amino-6-chloro-1,8-naphthyridin-2-yl)methyl)-2-(4-amino-7H-pyrrolo[2,3-d]pyrimidin-7-yl)hexahydro-3aH-cyclopenta[b]furan-3,3a-diol trihydrochloride] the figure was 7.89.
With `Nc1nc2cc(C[C@@H]3CC[C@@]4(O)[C@@H]3O[C@@H](n3ccc5c(N)ncnc53)[C@@H]4O)cc(F)c2cc1F` [Example 29, (2R,3R,3aS,6S,6aR)-6-[(2-amino-3,5-difluoroquinolin-7-yl)methyl]-2-(4-amino-7H-pyrrolo[2,3-d]pyrimidin-7-yl)hexahydro-3aH-cyclopenta[b]furan-3,3a-diol] the figure was 8.77; with `Nc1nc2cc(C[C@@H]3CC[C@@]4(O)[C@@H]3C[C@@H](n3cc(F)c5c(N)ncnc53)[C@@H]4O)cc(F)c2cc1F` [Example 30, (1S,2R,3aR,4S,6aR)-4-((2-amino-3,5-difluoroquinolin-7-yl)methyl)-2-(4-amino-5-fluoro-7H-pyrrolo[2,3-d]pyrimidin-7-yl)hexahydropentalene-1,6a(1H)-diol], 9.10.
For the compound `Cc1nc(N)c2ccn([C@@H]3C[C@@H]4[C@H](Cc5ccc6cc(Cl)c(N)nc6c5)CC[C@]4(O)[C@H]3O)c2n1` [Example 31, (1S,2R,3aR,4S,6aR)-2-(4-amino-2-methyl-7H-pyrrolo[2,3-d]pyrimidin-7-yl)-4-((2-amino-3-chloroquinolin-7-yl)methyl) hexahydropentalene-1,6a(1H)-diol 2,2,2-trifluoroacetate], the negative-log EC50 (pEC50) is 9.10.
With `Cc1nc(N)c2ccn([C@@H]3C[C@@H]4[C@H](Cc5ccc6cc(F)c(N)nc6c5)CC[C@]4(O)[C@H]3O)c2n1` [Example 32, (1S,2R,3aR,4S,6aR)-2-(4-amino-2-methyl-7H-pyrrolo[2,3-d]pyrimidin-7-yl)-4-((2-amino-3-fluoroquinolin-7-yl)methyl) hexahydropentalene-1,6a(1H)-diol 2,2,2-trifluoroacetate] the figure was 9.10.
For `Nc1nc2cc(C[C@@H]3CC[C@@]4(O)[C@@H]3C[C@@H](n3cc(F)c5c(N)ncnc53)[C@@H]4O)ccc2cc1F` [Example 33, (1S,2R,3aR,4S,6aR)-4-((2-amino-3-fluoroquinolin-7-yl)methyl)-2-(4-amino-5-fluoro-7H-pyrrolo[2,3-d]pyrimidin-7-yl)hexahydropentalene-1,6a(1H)-diol], the pEC50 is 9.40.
Regarding `Nc1nc2cc(C[C@@H]3CC[C@@]4(O)[C@@H]3C[C@@H](n3cc(F)c5c(N)ncnc53)[C@@H]4O)ccc2cc1Cl` [Example 34, (1S,2R,3aR,4S,6aR)-4-((2-amino-3-chloroquinolin-7-yl)methyl)-2-(4-amino-5-fluoro-7H-pyrrolo[2,3-d]pyrimidin-7-yl)hexahydropentalene-1,6a(1H)-diol], the pEC50 is 9.52.
`Cc1cn([C@@H]2C[C@@H]3[C@H](Cc4cc(F)c5cc(F)c(N)nc5c4)CC[C@]3(O)[C@H]2O)c2ncnc(N)c12` [Example 35, (1S,2R,3aR,4S,6aR)-4-[(2-amino-3,5-difluoroquinolin-7-yl)methyl]-2-(4-amino-5-methyl-7H-pyrrolo[2,3-d]pyrimidin-7-yl)hexahydropentalene-1,6a(1H)-diol] had a pEC50 of 9.10.
For the compound `Cc1cn([C@@H]2C[C@@H]3[C@H](Cc4cc(F)c5cc(Cl)c(N)nc5c4)CC[C@]3(O)[C@H]2O)c2ncnc(N)c12` [Example 36, (1S,2R,3aR,4S,6aR)-4-[(2-amino-3-chloro-5-fluoroquinolin-7-yl)methyl]-2-(4-amino-5-methyl-7H-pyrrolo[2,3-d]pyrimidin-7-yl)hexahydropentalene-1,6a(1H)-diol], the negative-log EC50 (pEC50) is 8.85.
The compound `Cc1nc(N)c2ccn([C@@H]3C[C@@H]4[C@H](Cc5ccc6cc(Br)c(N)nc6c5)CC[C@]4(O)[C@H]3O)c2n1` [Example 37, (1S,2R,3aR,4S,6aR)-2-(4-amino-2-methyl-7H-pyrrolo[2,3-d]pyrimidin-7-yI)-4-((2-amino-3-bromoquinolin-7-yl)methyl)hexahydropentalene-1,6a(1H)-diol] showed a negative-log EC50 (pEC50) of 9.22.
With `Cc1cn([C@@H]2C[C@@H]3[C@H](Cc4ccc5cc(F)c(N)nc5c4)CC[C@]3(O)[C@H]2O)c2ncnc(N)c12` [Example 38, (1S,2R,3aR,4S,6aR)-4-((2-amino-3-fluoroquinolin-7-yl)methyl)-2-(4-amino-5-methyl-7H-pyrrolo[2,3-d]pyrimidin-7-yl)hexahydropentaiene-1,6a(1H)-diol] the figure was 9.22; with `Cc1cn([C@@H]2C[C@@H]3[C@H](Cc4ccc5cc(Cl)c(N)nc5c4)CC[C@]3(O)[C@H]2O)c2ncnc(N)c12` [Example 39, (1S,2R,3aR,4S,6aR)-4-((2-amino-3-chloroquinolin-7-yl)methyl)-2-(4-amino-5-methyl-7H-pyrrolo[2,3-d]pyrimidin-7-yl)hexahydropentalene-1,6a(1H)-diol], 9.52; with `Cc1cn([C@@H]2C[C@@H]3[C@H](Cc4ccc5cc(Br)c(N)nc5c4)CC[C@]3(O)[C@H]2O)c2ncnc(N)c12` [Example 40, (1S,2R,3aR,4S,6aR)-4-((2-amino-3-bromoquinolin-7-yl)methyl)-2-(4-amino-5-methyl-7H-pyrrolo[2,3-d]pyrimidin-7-yl)hexahydropentalene-1,6a(1H)-diol], 9.15.
With `Nc1nc2cc(C[C@@H]3CC[C@@]4(O)[C@@H]3C[C@@H](n3ccc5c(N)ncnc53)[C@@H]4O)ccc2cc1Br` [Example 41, (1S,2R,3aR,4S,6aR)-4-((2-amino-3-bromoquinolin-7-yl)methyl)-2-(4-amino-7H-pyrrolo[2,3-d]pyrimidin-7-yl)hexahydropentalene-1,6a (1H)-diol 2,2,2-trifluoroacetate] the figure was 8.54; with `Nc1nc2cc(C[C@@H]3CC[C@@]4(O)[C@@H]3C[C@@H](n3cc(F)c5c(N)ncnc53)[C@@H]4O)ccc2cc1Br` [Example 42, (1S,2R,3aR,4S,6aR)-4-((2-amino-3-bromoquinolin-7-yl)methyl)-2-(4-amino-5-fluoro-7H-pyrrolo[2,3-d]pyrimidin-7-yl)hexahydropentalene-1,6a(1H)-diol], 9.52.
With `Nc1nc2cc(C[C@@H]3CC[C@@]4(O)[C@@H]3O[C@@H](n3cc(C(F)F)c5c(N)ncnc53)[C@@H]4O)ccc2cc1Br` [Example 43, (2R,3R,3aS,6S,6aR)-6-[(2-amino-3-bromoquinolin-7-yl)methyl]-2-[4-amino-5-(difluoromethyl)-7H-pyrrolo[2,3-d]pyrimidin-7-yl]hexahydro-3aH-cyclopenta[b]furan-3,3a-diol] the figure was 9.00.
